Molecular target: T1, BTK (Homo sapiens, UniProt Q06187)
T1 construct: endogenous in cells; host or cells: Mino cells
Experiment: BTK degradation activity test in Mino cells
Format: cell-based
Details: 16 h incubation, Western blot or Elisa
Procedure: Mino cell line cells were seeded at 500,000 to 1,000,000 cells/well in a 6-well plate. The compounds were diluted to different concentrations and added to the plate, and after 16 h of incubation, cells were harvested. After lysing the cells, the total protein concentration in each well was determined using the BCA method. The amount of BTK was determined using Western blot or Elisa method. The amount of undegraded BTK protein at each drug concentration was compared with the amount of BTK protein in the blank control group to calculate the degradation rate. The degradation curve was drawn based on the degradation rate at each concentration, and the half degradation concentration (DC50) was calculated by fitting.

T1 sequence (Q06187 whole entry): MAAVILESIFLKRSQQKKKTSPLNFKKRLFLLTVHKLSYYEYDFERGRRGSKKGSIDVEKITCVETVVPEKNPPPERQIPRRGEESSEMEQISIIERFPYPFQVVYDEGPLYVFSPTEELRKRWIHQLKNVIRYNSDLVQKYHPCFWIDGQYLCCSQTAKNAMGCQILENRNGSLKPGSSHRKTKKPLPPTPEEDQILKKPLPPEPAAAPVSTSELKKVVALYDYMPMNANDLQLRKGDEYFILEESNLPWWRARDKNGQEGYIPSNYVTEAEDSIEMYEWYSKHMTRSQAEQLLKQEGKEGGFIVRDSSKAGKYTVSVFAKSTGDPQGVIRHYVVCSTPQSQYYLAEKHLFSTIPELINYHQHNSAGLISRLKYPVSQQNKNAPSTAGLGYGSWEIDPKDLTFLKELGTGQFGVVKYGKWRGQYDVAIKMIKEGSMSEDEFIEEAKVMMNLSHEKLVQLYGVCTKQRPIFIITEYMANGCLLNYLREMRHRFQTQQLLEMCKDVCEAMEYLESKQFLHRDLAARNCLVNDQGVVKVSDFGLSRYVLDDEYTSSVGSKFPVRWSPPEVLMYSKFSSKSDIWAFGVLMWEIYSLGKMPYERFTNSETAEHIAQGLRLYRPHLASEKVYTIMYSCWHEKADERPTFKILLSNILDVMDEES

Q: With `CN1CCN(C2CCCN(c3ncc(C(N)=O)c(Nc4ccc(C5(C)CCN(CC6CCN(c7ccc8c(c7)C(=O)N(C7CCC(=O)NC7=O)C8=O)C6)CC5)cc4)n3)C2)C1=O` (stereo not drawn) [Compound 036, 4-((4-(1-((1-(2-(2,6-dioxopiperidin-3-yl)-1,3-dioxoisoindolin-5-yl)pyrrolidin-3-yl)methyl)-4-methylpiperidin-4-yl)phenyl)amino)-2-(3-(3-methyl-2-oxoimidazolin-1-yl)piperidin-1-yl)pyrimidin-5-carboxamide] as the molecule, how does the DC50 read?
A: < 1 nM

Q: With `CN1CCN(C2CCCN(c3nc(Nc4ccc(C5(C)CCN(CC6CCN(c7ccc8c(c7)C(=O)N(C7CCC(=O)NC7=O)C8=O)C6)CC5)cc4)c(C(N)=O)cc3F)C2)C1=O` (stereo not drawn) [Compound 037, 2-((4-(1-((1-(2-(2,6-dioxopiperidin-3-yl)-1,3-dioxoisoindolin-5-yl)pyrrolidin-3-yl)methyl)-4-methylpiperidin-4-yl)phenyl)amino)-5-fluoro-6-(3-(3-methyl-2-oxoimidazolin-1-yl)piperidin-1-yl)nicotinamide] as the molecule, how does the DC50 read?
A: > 1 nM

Q: Which DC50 does the source give for `COc1cc(C(N)=O)c(Nc2ccc(C3(C)CCN(CC4CCN(c5ccc6c(c5)C(=O)N(C5CCC(=O)NC5=O)C6=O)C4)CC3)cc2)nc1N1CCCC(N2CCN(C)C2=O)C1` (stereo not drawn) [Compound 038, 2-((4-(1-((1-(2-(2,6-dioxopiperidin-3-yl)-1,3-dioxoisoindolin-5-yl)pyrrolidin-3-yl)methyl)-4-methylpiperidin-4-yl)phenyl)amino)-5-methoxy-6-(3-(3-methyl-2-oxoimidazolin-1-yl)piperidin-1-yl)nicotinamide] here?
A: < 1 nM

Q: With `NC(=O)c1ncc(N2CCCC(N3CCN(C4CCCC4)C3=O)C2)nc1Nc1ccc(C2CCN(CC3CCN(c4ccc5c(c4)C(=O)N(C4CCC(=O)NC4=O)C5=O)C3)CC2)cc1` (stereo not drawn) [Compound 039, 5-(3-(3-cyclopentyl-2-oxoimidazolin-1-yl)piperidin-1-yl)-3-((4-(1-((1-(2-(2,6-dioxopiperidin-3-yl)-1,3-dioxoisoindolin-5-yl)pyrrolidin-3-yl)methyl)piperidin-4-yl)phenyl)amino)pyrazin-2-carboxamide] as the molecule, how does the DC50 read?
A: < 1 nM

Q: Which DC50 does the source give for `NC(=O)c1ncc(N2CCCC(N3CCN(C4CCCC4)C3=O)C2)nc1Nc1ccc(C2(F)CCN(CC3CCN(c4ccc5c(c4)C(=O)N(C4CCC(=O)NC4=O)C5=O)C3)CC2)cc1` (stereo not drawn) [Compound 040, 5-(3-(3-cyclopentyl-2-oxoimidazolin-1-yl)piperidin-1-yl)-3-((4-(1-((1-(2-(2,6-dioxopiperidin-3-yl)-1,3-dioxoisoindolin-5-yl)pyrrolidin-3-yl)methyl)-4-fluoropiperidin-4-yl)phenyl)amino)pyrazin-2-carboxamide] here?
A: < 1 nM

Q: `NC(=O)c1ncc(N2CCCC(N3CCN(C4CCCC4)C3=O)C2)nc1Nc1ccc(C2CCN(CC3CCN(c4ccc5c(c4)C(=O)N(C4CCC(=O)NC4=O)C5=O)C3)CC2)cc1F` (stereo not drawn) [Compound 041, 5-(3-(3-cyclopentyl-2-oxoimidazolin-1-yl)piperidin-1-yl)-3-((4-(1-((1-(2-(2,6-dioxopiperidin-3-yl)-1,3-dioxoisoindolin-5-yl)pyrrolidin-3-yl)methyl)piperidin-4-yl)-2-fluorophenyl)amino)pyrazin-2-carboxamide] was tested. Which DC50 did it give?
A: < 1 nM

Q: `N#Cc1cc(Nc2nc(N3CCCC(N4CCN(C5CCCC5)C4=O)C3)cnc2C(N)=O)ccc1C1CCN(CC2CCN(c3ccc4c(c3)C(=O)N(C3CCC(=O)NC3=O)C4=O)C2)CC1` (stereo not drawn) [Compound 042, 3-((3-cyano-4-(1-((1-(2-(2,6-dioxopiperidin-3-yl)-1,3-dioxoisoindolin-5-yl)pyrrolidin-3-yl)methyl)piperidin-4-yl)phenyl)amino)-5-(3-(3-cyclopentyl-2-oxoimidazolin-1-yl)piperidin-1-yl)pyrazin-2-carboxamide] was tested. Which DC50 did it give?
A: < 1 nM

Q: `NC(=O)c1ncc(N2CCCC(N3CCN(C4CCCC4)C3=O)C2)nc1Nc1ccc(C2CCN(CC3CCN(c4ccc5c(c4)C(=O)N(C4CCC(=O)NC4=O)C5=O)C3)CC2F)cc1` (stereo not drawn) [Compound 043, 5-(3-(3-cyclopentyl-2-oxoimidazolin-1-yl)piperidin-1-yl)-3-((4-(1-((1-(2-(2,6-dioxopiperidin-3-yl)-1,3-dioxoisoindolin-5-yl)pyrrolidin-3-yl)methyl)-3-fluoropiperidin-4-yl)phenyl)amino)pyrazin-2-carboxamide] was tested. Which DC50 did it give?
A: > 1 nM

Q: For `CN1C(=O)N(C2CCCN(c3cnc(C(N)=O)c(Nc4ccc(C5CCN(CC6CCN(c7ccc8c(c7)C(=O)N(C7CCC(=O)NC7=O)C8=O)C6)CC5)cc4)n3)C2)CC12CC2` (stereo not drawn) [Compound 044, 3-((4-(1-((1-(2-(2,6-dioxopiperidin-3-yl)-1,3-dioxoisoindolin-5-yl)pyrrolidin-3-yl)methyl)piperidin-4-yl)phenyl)amino)-5-(3-(4-methyl-5-oxo-4,6-diazaspiro[2.4]cycloheptan-6-yl)piperidin-1-yl)pyrazin-2-carboxamide], which DC50 is on record?
A: < 1 nM

Q: For `NC(=O)c1ncc(N2CCCC(N3CC4CCCCN4C3=O)C2)nc1Nc1ccc(C2CCN(CC3CCN(c4ccc5c(c4)C(=O)N(C4CCC(=O)NC4=O)C5=O)C3)CC2)cc1` (stereo not drawn) [Compound 045, 3-((4-(1-((1-(2-(2,6-dioxopiperidin-3-yl)-1,3-dioxoisoindolin-5-yl)pyrrolidin-3-yl)methyl)piperidin-4-yl)phenyl)amino)-5-(3-(3-oxohexahydroimidazo[1,5-a]pyridin-2(3H)-yl)piperidin-1-yl)pyrazin-2-carboxamide], which DC50 is on record?
A: < 1 nM

Q: How did the DC50 turn out when `CN1CCN(C2CC3CC2N(c2cnc(C(N)=O)c(Nc4ccc(C5CCN(C6CN(c7ccc8c(c7)C(=O)N(C7CCC(=O)NC7=O)C8=O)C6)CC5)cc4)n2)C3)C1=O` (stereo not drawn) [Compound 046, 3-((4-(1-(1-(2-(2,6-dioxopiperidin-3-yl)-1,3-dioxoisoindolin-5-yl)azetidin-3-yl)piperidin-4-yl)phenyl)amino)-5-(-6-(3-methyl-2-oxoimidazolin-1-yl)-2-azabicyclo[2.2.1]heptan-2-yl)pyrazin-2-carboxamide] was run?
A: < 1 nM

Q: Which DC50 does the source give for `CC(C)N1CCN(C2CC3CC2N(c2cnc(C(N)=O)c(Nc4ccc(C5CCN(C6CN(c7ccc8c(c7)C(=O)N(C7CCC(=O)NC7=O)C8=O)C6)CC5)cc4)n2)C3)C1=O` (stereo not drawn) [Compound 047, 3-((4-(1-(1-(2-(2,6-dioxopiperidin-3-yl)-1,3-dioxoisoindolin-5-yl)azetidin-3-yl)piperidin-4-yl)phenyl)amino)-5-(-6-(3-isopropyl-2-oxoimidazolin-1-yl)-2-azabicyclo[2.2.1]heptan-2-yl)pyrazin-2-carboxamide] here?
A: < 1 nM

Q: `CN1CCN(C2CC3CC2N(c2ccc(C(N)=O)c(Nc4ccc(C5CCN(C6CN(c7ccc8c(c7)C(=O)N(C7CCC(=O)NC7=O)C8=O)C6)CC5)cc4)n2)C3)C1=O` (stereo not drawn) [Compound 048, 2-((4-(1-(1-(2-(2,6-dioxopiperidin-3-yl)-1,3-dioxoisoindolin-5-yl)azetidin-3-yl)piperidin-4-yl)phenyl)amino)-6-(-6-(3-methyl-2-oxoimidazolin-1-yl)-2-azabicyclo[2.2.1]heptan-2-yl)nicotinamide] was tested. Which DC50 did it give?
A: < 1 nM

Q: For `CN1CCN(C2CC3CC2N(c2nnc(C(N)=O)c(Nc4ccc(C5CCN(C6CN(c7ccc8c(c7)C(=O)N(C7CCC(=O)NC7=O)C8=O)C6)CC5)cc4)n2)C3)C1=O` (stereo not drawn) [Compound 049, 5-((4-(1-(1-(2-(2,6-dioxopiperidin-3-yl)-1,3-dioxoisoindolin-5-yl)azetidin-3-yl)piperidin-4-yl)phenyl)amino)-3-(-6-(3-methyl-2-oxoimidazolin-1-yl)-2-azabicyclo[2.2.1]heptan-2-yl)-1,2,4-triazin-6-carboxamide], which DC50 is on record?
A: < 1 nM

Q: `CN1CCN(C2CC3CCC2N(c2cnc(C(N)=O)c(Nc4ccc(C5CCN(C6CN(c7ccc8c(c7)C(=O)N(C7CCC(=O)NC7=O)C8=O)C6)CC5)cc4)n2)C3)C1=O` (stereo not drawn) [Compound 050, 3-((4-(1-(1-(2-(2,6-dioxopiperidin-3-yl)-1,3-dioxoisoindolin-5-yl)azetidin-3-yl)piperidin-4-yl)phenyl)amino)-5-(-6-(3-methyl-2-oxoimidazolin-1-yl)-2-azabicyclo[2.2.2]octan-2-yl)pyrazin-2-carboxamide] was tested. Which DC50 did it give?
A: < 1 nM

Q: For `CN1CCN(C2CC3CC2N(c2nnc(C(N)=O)c(Nc4ccc(C5CCN(C6CN(c7cc8c(cc7F)C(=O)N(C7CCC(=O)NC7=O)C8=O)C6)CC5)cc4)n2)C3)C1=O` (stereo not drawn) [Compound 051, 5-((4-(1-(1-(2-(2,6-dioxopiperidin-3-yl)-6-fluoro-1,3-dioxoisoindolin-5-yl)azetidin-3-yl)piperidin-4-yl)phenyl)amino)-3-(-6-(3-methyl-2-oxoimidazolin-1-yl)-2-azabicyclo[2.2.1]heptan-2-yl)-1,2,4-triazin-6-carboxamide], which DC50 is on record?
A: < 1 nM

Q: How did the DC50 turn out when `NC(=O)c1ncc(N2CCCC(N3CCN(C4CCCC4)C3=O)C2)nc1Nc1ccc(C2CCN(CC3CCN(c4cc5c(cc4F)C(=O)N(C4CCC(=O)NC4=O)C5=O)C3)CC2)cc1` (stereo not drawn) [Compound 052, 5-(3-(3-cyclopentyl-2-oxoimidazolin-1-yl)piperidin-1-yl)-3-((4-(1-((1-(2-(2,6-dioxopiperidin-3-yl)-6-fluoro-1,3-dioxoisoindolin-5-yl)pyrrolidin-3-yl)methyl)piperidin-4-yl)phenyl)amino)pyrazin-2-carboxamide] was run?
A: < 1 nM

Q: For `CN1CCN(C2CCCN(c3nnc(C(N)=O)c(Nc4ccc(C5CCN(CC6CCN(c7ccc8c(c7)C(=O)N(C7CCC(=O)NC7=O)C8=O)CC6)CC5)cc4)n3)C2)C1=O` (stereo not drawn) [Compound 053, 5-((4-(1-((1-(2-(2,6-dioxopiperidin-3-yl)-1,3-dioxoisoindol-5-yl)piperidin-4-yl)methyl)piperidin-4-yl)phenyl)amino)-3-(3-(3-methyl-2-oxoimidazolin-1-yl)piperidin-1-yl)-1,2,4-triazin-6-carboxamide], which DC50 is on record?
A: < 1 nM

From patent US20240360146A1, “BRUTON'S TYROSINE KINASE AND MUTANT DEGRADER, COMPOSITION AND APPLICATION THEREOF” (HANGZHOU HEALZEN THERAPEUTICS CO., LTD., priority 2021, published 2024)
